Values of other authors, collected in paper PMC4654502, “Early Gelatinase Activity Is Not a Determinant of Long-Term Recovery after Traumatic Brain Injury in the Immature Mouse” (PLoS ONE, 2015).

Assays:
HI in p7 rat pups = settings: cited from earlier work
TBI in adult mice = settings: 25 mg/kg; cited from earlier work
HI injury in rats at p21 = tested on: HI injury in rats at p21; design: method as in PMID 23171520; settings: i.p. 50 mg/kg at 30 min, 6 h and 12 h after HI; cited from earlier work
[1] = tested on: fluid-percussion injury in adult rats; settings: cited from earlier work
[2] = tested on: adult models of ischemic stroke; design: method as in PMID 22587708; settings: cited from earlier work

| Structure (SMILES) | acute cell death after HI (HI in p7 rat pups) | ipsilateral brain tissue loss after HI (HI in p7 rat pups) | functional and neuropathological outcomes after TBI in adult mice (TBI in adult mice) | neuroprotection after HI injury (HI injury in rats at p21) | pro-MMP-9 after acute treatment (HI injury in rats at p21) | behavioral and cognitive deficits after TBI [1] | hippocampal neurons after TBI [1] | behavioral and cognitive consequences of ischemic stroke [2] | infarct volumes [2] |
| --- | --- | --- | --- | --- | --- | --- | --- | --- | --- |
| CNC(=O)[C@H](Cc1c[nH]c2ccccc12)NC(=O)[C@@H](CC(=O)NO)CC(C)C [GM6001] | amelioration of acute cell death | preservation of ipsilateral brain tissue loss | – | – | – | – | – | – | – |
| O=S(=O)(CC1CS1)c1ccc(Oc2ccccc2)cc1 (stereo not drawn) [SB-3CT] | – | – | effective at improving functional and neuropathological outcomes | failed to render significant neuroprotection | a reduction in pro-MMP-9 | rescued behavioral and cognitive deficits | preserved hippocampal neurons | ameliorate behavioral and cognitive consequences | reduce infarct volumes |
